Assay results reported in the supplement of paper PMC9763283.
Counter-ions that a name gives are not always drawn.

Assays:
Assay in all cases: area under growth-rate inhibition curve (AUC GRI) (dimensionless (GR-based AUC)); higher = less growth inhibition
Conditions in all cases: exposure time: 72 h; concentrations: 0.1, 1, 10 uM
MDA-MB-468 = test system: MDA-MB-468
How it was run: (§1)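 Six breast cancer cell line models were used: two triple-negative lines, plus parental HER2+ lines and HER2+ lines resistant to a two-drug combination, each plated at an optimised log-phase density and treated with compound at 0.1, 1 or 10 µM for 72 h. After fixation in 4% paraformaldehyde, nuclei were stained with Hoechst 33342 or DAPI, imaged and counted. Growth was corrected using Day 0 plates, untreated Day 3 plates and DMSO controls, with 2 biological replicates. These corrected counts gave the area under the growth-rate inhibition curve.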

BT474-LTR = test system: BT474-LTR
How it was run: as §1

MDA-MB-231 = test system: MDA-MB-231
How it was run: as §1

SKBR3-P = test system: SKBR3-P
How it was run: as §1

BT474-P = test system: BT474-P
How it was run: as §1

SKBR3-LTR = test system: SKBR3-LTR
How it was run: as §1

| SMILES | area under growth-rate inhibition curve (MDA-MB-468) | area under growth-rate inhibition curve (BT474-LTR) | area under growth-rate inhibition curve (MDA-MB-231) | area under growth-rate inhibition curve (SKBR3-P) | area under growth-rate inhibition curve (BT474-P) | area under growth-rate inhibition curve (SKBR3-LTR) |
| --- | --- | --- | --- | --- | --- | --- |
| C=CCC1(O)CCC2C3CCC4=CC(=O)CCC4=C3C=CC21C (stereo unspecified) [Altrenogest] | 1 | 1.01 | 1.03 | 1.04 | 0.953 | 1.08 |
| C[C@H]1CN(C[C@H](Cc2ccccc2)C(=O)NCC(=O)O)CC[C@@]1(C)c1cccc(O)c1 [Alvimopan] | 1.03 | 1.03 | 1.03 | 1.02 | 0.995 | 1.04 |
| Cl.NC12CC3CC(CC(C3)C1)C2 [Amantadine HCl] | 1.02 | 1.08 | 1.03 | 1.05 | 1.05 | 1.05 |
| COC(c1ccccc1)(c1ccccc1)C(Oc1nc(C)cc(C)n1)C(=O)O (stereo unspecified) [Ambrisentan] | 1.04 | 1.05 | 1.05 | 1.03 | 1.01 | 1.06 |
| CC(NC(C)(C)C)C(=O)c1cccc(Cl)c1 (stereo unspecified) [Amfebutamone HCl] | 1.01 | 1.03 | 0.987 | 1.01 | 1.02 | 1.03 |
| CCN1CCCC1CNC(=O)c1cc(S(=O)(=O)CC)c(N)cc1OC (stereo unspecified) [Amisulpride] | 1.01 | 0.985 | 0.988 | 1.02 | 1.01 | 0.975 |
| CN(C)CCC=C1c2ccccc2CCc2ccccc21.Cl [Amitriptyline HCl] | 0.997 | 1.08 | 1.03 | 0.983 | 1.03 | 1.09 |
| COc1ccc(C(=O)N2CCCC2=O)cc1 [Aniracetam] | 1.02 | 1.08 | 1.01 | 1.01 | 1.04 | 1 |
| [Cl-].[H+].c1ccc(CN(CC2=NCCN2)c2ccccc2)cc1 [Antazoline hydrochloride] | 1.04 | 1.05 | 1.03 | 1.03 | 1.01 | 1.05 |
| CCOc1cc([C@@H](CS(C)(=O)=O)N2C(=O)c3cccc(NC(C)=O)c3C2=O)ccc1OC [Apremilast] | 1.03 | 1.04 | 1 | 1.02 | 1.01 | 1.05 |
| COC(=O)C1=CCCN(C)C1.[Br-].[H+] [Arecoline] | 0.988 | 1.06 | 1.03 | 1.02 | 1.04 | 1.03 |
| O=C1CCc2ccc(OCCCCN3CCN(c4cccc(Cl)c4Cl)CC3)cc2N1 [Aripiprazole] | 0.863 | 0.955 | 0.988 | 0.971 | 0.924 | 0.996 |
| CN1CC2c3ccccc3Oc3ccc(Cl)cc3C2C1.O=C(O)C=CC(=O)O (stereo unspecified) [Asenapine] | 0.959 | 1.06 | 1.02 | 0.975 | 1.01 | 0.993 |
| CCC1(c2c[nH]cn2)Cc2ccccc2C1 [Atipamezole hydrochloride] | 1.02 | 1.11 | 1.03 | 0.985 | 1.04 | 1.07 |
| CCC1(c2c[nH]cn2)Cc2ccccc2C1 [Atipamezole] | 1.01 | 1.08 | 1.02 | 1.01 | 1.04 | 1.09 |
| CNCC[C@@H](Oc1ccccc1C)c1ccccc1.Cl [Atomoxetine HCl] | 1.01 | 1.09 | 1.02 | 1.01 | 1.04 | 1.05 |
| CN1C2CCC1CC(OC(=O)C(CO)c1ccccc1)C2 (stereo unspecified) [Atropine] | 1.04 | 1.11 | 1.03 | 1.03 | 1.04 | 1.09 |
| CN1CCC(=C2c3ccccc3CCc3cccnc32)CC1.O=C(O)C=CC(=O)O.O=C(O)C=CC(=O)O [Azatadine dimaleate] | 1.05 | 1.12 | 1.05 | 1.02 | 1.07 | 1.01 |
| CN1CCCC(n2nc(Cc3ccc(Cl)cc3)c3ccccc3c2=O)CC1.[Cl-].[H+] (stereo unspecified) [Azelastine HCl] | 0.985 | 1.06 | 1.02 | 0.938 | 1.01 | 1.02 |
| CCc1cc(C(C)=NOCc2ccc(C3CCCCC3)c(C(F)(F)F)c2)ccc1CN1CC(C(=O)O)C1 [BAF312 (Siponimod)] | 0.961 | 0.989 | 1.01 | 0.99 | 1.01 | 0.968 |
| COc1ccc2c(c1)c(CC(=O)N1CCOCC1)c(C)n2C(=O)c1ccc(Cl)cc1 [BML-190] | 1.01 | 1.08 | 1.01 | 1.02 | 1.03 | 1.03 |
| COc1ccccc1N1CCN(CCN2C(=O)CC3(CCCC3)CC2=O)CC1.[Cl-].[Cl-].[H+].[H+] [BMY 7378] | 1.02 | 1.11 | 1.03 | 0.982 | 1.03 | 1.1 |
| CC(C)C[C@@H]1NC(=O)[C@@H](C(C)C)NC(=O)[C@@H]2CCCN2C(=O)[C@@H](CC(=O)O)NC(=O)[C@@H](Cc2c[nH]c3ccccc23)NC1=O [BQ-123] | 0.996 | 1.02 | 0.988 | 1.01 | 0.983 | 1.03 |
| CN(C)C(=O)Oc1cc(OC(=O)N(C)C)cc(C(O)CNC(C)(C)C)c1.[Cl-].[H+] (stereo unspecified) [Bambuterol HCl] | 1.03 | 1.09 | 1.04 | 1.01 | 1.06 | 1.03 |
| Cc1c(-c2ccc(O)cc2)n(Cc2ccc(OCCN3CCCCCC3)cc2)c2ccc(O)cc12.[Cl-].[H+] [Bazedoxifene HCl] | 0.898 | 0.949 | 0.9 | 0.956 | 0.755 | 0.944 |
| Cl.NC(CO)C(=O)NNCc1ccc(O)c(O)c1O (stereo unspecified) [Benserazide HCl] | 1.06 | 1.1 | 1.05 | 1.03 | 1.05 | 1.05 |

| SMILES | area under growth-rate inhibition curve (MDA-MB-468) | area under growth-rate inhibition curve (BT474-LTR) | area under growth-rate inhibition curve (MDA-MB-231) | area under growth-rate inhibition curve (SKBR3-P) | area under growth-rate inhibition curve (BT474-P) | area under growth-rate inhibition curve (SKBR3-LTR) |
| --- | --- | --- | --- | --- | --- | --- |
| CS(=O)(=O)[O-].C[NH+]1[C@@H]2CC[C@H]1C[C@@H](OC(c1ccccc1)c1ccccc1)C2 [Benztropine mesylate] | 0.994 | 1.08 | 1.03 | 0.986 | 1.03 | 1.01 |
| O=C(O)CCCN1CCC(OC(c2ccc(Cl)cc2)c2ccccn2)CC1.O=S(=O)(O)c1ccccc1 (stereo unspecified) [Bepotastine Besilate] | 1.03 | 1.09 | 1.03 | 0.992 | 1.03 | 1.06 |
| CC(C)NCC(O)COc1ccc(CCOCC2CC2)cc1.[Cl-].[H+] (stereo unspecified) [Betaxolol hydrochloride (Betoptic)] | 1.04 | 1.1 | 1.05 | 0.98 | 1.02 | 1.06 |
| CC(C)NCC(O)COc1ccc(CCOCC2CC2)cc1.[Cl-].[H+] (stereo unspecified) [Betaxolol] | 1.01 | 1.07 | 1.05 | 0.996 | 1.01 | 1.07 |
| CC(C[N+](C)(C)C)OC(N)=O.[Cl-] (stereo unspecified) [Bethanechol chloride] | 1.04 | 1.11 | 1.03 | 1.03 | 1.05 | 1.07 |
| Oc1c(Cl)cc(Cl)cc1Sc1cc(Cl)cc(Cl)c1O [Bithionol] | 0.985 | 1.06 | 1.03 | 1.01 | 0.999 | 1.02 |
| COc1ccccc1Oc1c(NS(=O)(=O)c2ccc(C(C)(C)C)cc2)nc(-c2ncccn2)nc1OCCO.O [Bosentan Hydrate] | 1.01 | 1.09 | 1.04 | 1.01 | 1.04 | 1.06 |
| COc1ccccc1Oc1c(NS(=O)(=O)c2ccc(C(C)(C)C)cc2)nc(-c2ncccn2)nc1OCCO [Bosentan] | 1.03 | 1.08 | 1.03 | 1.02 | 1.03 | 1.05 |
| Oc1ccc2ccc(OCCCCN3CCN(c4cccc5sccc45)CC3)cc2n1 [Brexpiprazole] | 0.99 | 1.05 | 1 | 1.03 | 1.04 | 1.02 |
| CN(C)CCC(c1ccc(Br)cc1)c1ccccn1.O=C(O)/C=C\C(=O)O (stereo unspecified) [Brompheniramine hydrogen maleate] | 1.04 | 1.09 | 1.03 | 0.998 | 1.05 | 1.04 |
| CCCC1O[C@@H]2C[C@H]3[C@@H]4CCC5=CC(=O)C=C[C@]5(C)[C@H]4[C@@H](O)C[C@]3(C)[C@]2(C(=O)CO)O1 (stereo partly specified) [Budesonide] | 1.03 | 0.98 | 0.971 | 0.912 | 0.901 | 1.03 |
| CCCCN1CCCCC1C(=O)[NH2+]c1c(C)cccc1C.[Cl-] (stereo unspecified) [Bupivacaine HCl] | 1.07 | 1.12 | 1.04 | 1.06 | 1.1 | 1.1 |
| O=C1CC2(CCCC2)CC(=O)N1CCCCN1CCN(c2ncccn2)CC1.[Cl-].[H+] [Buspirone hydrochloride] | 1.01 | 1.02 | 1 | 1.01 | 1.01 | 1.03 |
| C=CCN1CC(C(=O)N(CCCN(C)C)C(=O)NCC)CC2c3cccc4[nH]cc(c34)CC21 (stereo unspecified) [Cabergoline] | 1.05 | 1.05 | 1.04 | 1.03 | 1.01 | 1.05 |
| Cc1ccc(C2OC(CO)C(O)C(O)C2O)cc1Cc1ccc(-c2ccc(F)cc2)s1 (stereo unspecified) [Canagliflozin] | 1 | 1.07 | 1.02 | 1.03 | 1.02 | 1.05 |
| CN(C)C(=O)N[C@H]1CC[C@H](CCN2CCN(c3cccc(Cl)c3Cl)CC2)CC1 [Cariprazine] | 1.02 | 1.04 | 1.02 | 1.01 | 1.02 | 1.05 |
| CC(C)(C)NCC(O)COc1cccc2c1CCC(=O)N2.[Cl-].[H+] (stereo unspecified) [Carteolol HCl] | 1.03 | 1.11 | 1.04 | 1.04 | 1.05 | 1.1 |
| COc1ccccc1OCCNCC(O)COc1cccc2[nH]c3ccccc3c12 (stereo unspecified) [Carvedilol] | 0.937 | 1.03 | 1.03 | 1 | 0.957 | 1.07 |
| O=C(O)COCCN1CCN(C(c2ccccc2)c2ccc(Cl)cc2)CC1.[Cl-].[Cl-].[H+].[H+] (stereo unspecified) [Cetirizine DiHCl] | 1 | 1.07 | 1.02 | 0.997 | 1.03 | 1.03 |
| COc1ccc(C(Cl)=C(c2ccc(OC)cc2)c2ccc(OC)cc2)cc1 [Chlorotrianisene] | 1 | 1.08 | 1.01 | 0.987 | 0.983 | 1.05 |
| CN(C)CCC(c1ccc(Cl)cc1)c1ccccn1.O=C(O)/C=C\C(=O)O (stereo unspecified) [Chlorpheniramine Maleate] | 1.04 | 1.12 | 1.03 | 1.01 | 1.05 | 1.03 |
| C[NH+](C)CCCN1c2ccccc2Sc2ccc(Cl)cc21.[Cl-] [Chlorpromazine Hydrochloride] | 0.989 | 0.991 | 0.985 | 0.994 | 1 | 1.02 |
| CN(C)CC/C=C1/c2ccccc2Sc2ccc(Cl)cc21 [Chlorprothixene] | 0.931 | 1.01 | 1.02 | 0.97 | 0.997 | 1.03 |
| CC(C)C(=O)OCC(=O)[C@@]12O[C@H](C3CCCCC3)O[C@@H]1C[C@H]1[C@@H]3CCC4=CC(=O)C=C[C@]4(C)[C@H]3[C@@H](O)C[C@@]12C [Ciclesonide] | 1.03 | 0.999 | 0.996 | 0.955 | 0.947 | 1.05 |
| CC1(C)C[C@@H]1C(=O)N/C(=C\CCCCSC[C@H](N)C(=O)O)C(=O)[O-].[Na+] [Cilastatin sodium] | 1.02 | 1.05 | 1 | 1.01 | 1.03 | 1.03 |
